Laboratory results taken from article PMC7618403 (Science (New York, N.Y.), 2026).

How the values were obtained:
[1] = target: T1, XRCC3 complex (XRCC3-RAD51C-RAD51D-XRCC2), XRCC3 site (Homo sapiens, UniProt O43542, E143A); assay: ATP hydrolysis assay; format: biochemical; details: catalytic glutamate mutant
T1 construct: heterotetramer co-expressed in baculovirus-infected insect cells, purified; DNA repair protein XRCC2

[2] = target: T2, XRCC3 complex (XRCC3-RAD51C-RAD51D-XRCC2), XRCC2 site (Homo sapiens, UniProt O43543); assay: cryo-EM structure, […] A; format: binding; details: XRCC2 nucleotide site; ATP with Mg2+ and Ca2+; capped RAD51-ssDNA filament
T2 construct: heterotetramer co-expressed in baculovirus-infected insect cells, purified; caps a RAD51-ssDNA filament; with DNA repair protein XRCC3

[3] = target: T3, RAD51 (filament on ssDNA capped by XRCC3 complex) (Homo sapiens, UniProt Q06609); assay: cryo-EM structure, […] A; format: binding; details: RAD51 active sites, ATP with Mg2+ and Ca2+
T3 construct: with DNA repair protein XRCC3; DNA repair protein XRCC2

[4] = target: T4, XRCC3 complex (XRCC3-RAD51C-RAD51D-XRCC2), XRCC3 site (Homo sapiens, UniProt O43542); assay: ATP hydrolysis assay; format: biochemical; details: catalytic glutamate mutant
T4 construct: heterotetramer co-expressed in baculovirus-infected insect cells, purified; in the structure it caps a RAD51-ssDNA filament; DNA repair protein XRCC2
Target sequence in this assay (O43502 whole entry E161A partner, one chain of several): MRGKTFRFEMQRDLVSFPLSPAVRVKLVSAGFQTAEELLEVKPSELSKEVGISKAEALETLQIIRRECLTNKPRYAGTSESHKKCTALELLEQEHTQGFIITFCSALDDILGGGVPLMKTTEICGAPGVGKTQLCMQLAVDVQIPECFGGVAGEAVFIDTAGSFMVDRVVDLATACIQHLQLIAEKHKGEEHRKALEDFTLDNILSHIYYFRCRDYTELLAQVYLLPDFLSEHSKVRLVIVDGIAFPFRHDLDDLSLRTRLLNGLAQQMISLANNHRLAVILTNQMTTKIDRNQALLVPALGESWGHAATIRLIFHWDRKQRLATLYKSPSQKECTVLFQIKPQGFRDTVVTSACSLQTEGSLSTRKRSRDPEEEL

[5] = target: T5, XRCC3 complex (XRCC3-RAD51C-RAD51D-XRCC2), RAD51D site (Homo sapiens, UniProt O75771); assay: cryo-EM structure, […] A; format: binding; details: RAD51D nucleotide site; ATP with Mg2+ and Ca2+; capped RAD51-ssDNA filament
T5 construct: heterotetramer co-expressed in baculovirus-infected insect cells, purified; caps a RAD51-ssDNA filament; with DNA repair protein XRCC3; DNA repair protein XRCC2

[6] = target: T6, (Homo sapiens, UniProt O15315+O43502); assay: ATP hydrolysis assay; format: biochemical; details: coupled RAD51B and RAD51C ATPase sites
T6 construct: gene RAD51B; heterotetramer; DNA repair protein XRCC2
T6 sequence (O15315 whole entry, one chain of several): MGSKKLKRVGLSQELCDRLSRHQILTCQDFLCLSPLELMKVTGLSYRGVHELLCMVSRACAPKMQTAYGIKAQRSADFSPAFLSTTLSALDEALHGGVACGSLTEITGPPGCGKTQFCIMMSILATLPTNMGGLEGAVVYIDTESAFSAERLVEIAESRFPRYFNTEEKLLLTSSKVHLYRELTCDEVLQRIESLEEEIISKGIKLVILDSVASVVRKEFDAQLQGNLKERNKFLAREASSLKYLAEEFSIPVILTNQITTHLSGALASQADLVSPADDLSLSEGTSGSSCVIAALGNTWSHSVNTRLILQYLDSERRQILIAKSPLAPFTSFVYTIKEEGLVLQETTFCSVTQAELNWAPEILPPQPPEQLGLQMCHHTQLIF

[7] = target: T4, XRCC3 complex (XRCC3-RAD51C-RAD51D-XRCC2), XRCC3 site; assay: cryo-EM structure, […] A; format: binding; details: XRCC3 active site; ATP with Mg2+ and Ca2+; capped RAD51-ssDNA filament
[8] = target: T7, RAD51B complex (RAD51B-RAD51C-RAD51D-XRCC2; BCDX2) (Homo sapiens, UniProt O15315+O43502, O43502:E161A); assay: ATP hydrolysis assay; format: biochemical; details: catalytic glutamate mutant
T7 construct: heterotetramer; DNA repair protein XRCC2
T7 sequence (O15315 whole entry, one chain of several): as above
T7 sequence (O43502 whole entry E161A, one chain of several): as the sequence (O43502 whole entry E161A partner, one chain of several) above

RAD51 [9] = target: T8, RAD51 (human, UniProt Q06609 1-339); assay: MST
T8 chain: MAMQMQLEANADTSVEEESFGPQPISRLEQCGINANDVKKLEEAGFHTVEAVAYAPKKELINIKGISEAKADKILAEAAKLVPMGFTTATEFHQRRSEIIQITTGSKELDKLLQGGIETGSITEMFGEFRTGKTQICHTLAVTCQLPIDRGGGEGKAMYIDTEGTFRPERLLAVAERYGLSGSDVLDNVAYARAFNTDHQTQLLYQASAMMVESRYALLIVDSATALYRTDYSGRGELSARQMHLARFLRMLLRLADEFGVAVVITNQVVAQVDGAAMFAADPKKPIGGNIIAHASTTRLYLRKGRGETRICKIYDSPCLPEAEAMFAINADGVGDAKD

RAD51 [10] = target: T8, RAD51; assay: MST; 1 mM ATP and CaCl2

T1 sequence (O43542 whole entry E143A, one chain of several): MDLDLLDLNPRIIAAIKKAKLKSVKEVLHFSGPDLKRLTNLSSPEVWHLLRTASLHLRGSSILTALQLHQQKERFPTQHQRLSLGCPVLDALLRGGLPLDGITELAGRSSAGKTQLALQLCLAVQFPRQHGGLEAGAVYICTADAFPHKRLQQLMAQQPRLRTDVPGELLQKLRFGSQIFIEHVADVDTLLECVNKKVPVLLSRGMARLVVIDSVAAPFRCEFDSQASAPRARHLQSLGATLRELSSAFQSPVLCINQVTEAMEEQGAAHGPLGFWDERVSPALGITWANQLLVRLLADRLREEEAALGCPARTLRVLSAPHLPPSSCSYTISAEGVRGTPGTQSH

Nc1ncnc2c1ncn2[C@@H]1O[C@H](COP(=O)(O)OP(=O)(O)OP(=O)(O)O)[C@@H](O)[C@H]1O [ATP]
ATP hydrolysis assay [1]: residual activity was eliminated by an XRCC3 catalytic glutamate mutant (XRCC3^E143A) | cryo-EM structure, 2.7 A [2]: RAD51D and XRCC2 were both bound to ATP | cryo-EM structure, 2.7 A [3]: XRCC3 and RAD51 protomers were also bound to ATP | ATP hydrolysis assay [4]: mutation of the catalytic glutamate in RAD51C (RAD51C^E161A) had no effect on ATPase activity | cryo-EM structure, 2.7 A [5]: RAD51D and XRCC2 were both bound to ATP | ATP hydrolysis assay [6]: XRCC3 complex displayed minimal ATPase activity relative to the RAD51B complex | cryo-EM structure, 2.7 A [7]: XRCC3 and RAD51 protomers were also bound to ATP | ATP hydrolysis assay [8]: the same mutation abolishing the ATPase activity in the RAD51B complex

B1: XRCC3-RAD51C-RAD51D-XRCC2 complex (complex)
chain 1: MDLDLLDLNPRIIAAIKKAKLKSVKEVLHFSGPDLKRLTNLSSPEVWHLLRTASLHLRGSSILTALQLHQQKERFPTQHQRLSLGCPVLDALLRGGLPLDGITELAGRSSAGKTQLALQLCLAVQFPRQHGGLEAGAVYICTEDAFPHKRLQQLMAQQPRLRTDVPGELLQKLRFGSQIFIEHVADVDTLLECVNKKVPVLLSRGMARLVVIDSVAAPFRCEFDSQASAPRARHLQSLGATLRELSSAFQSPVLCINQVTEAMEEQGAAHGPLGFWDERVSPALGITWANQLLVRLLADRLREEEAALGCPARTLRVLSAPHLPPSSCSYTISAEGVRGTPGTQSH
chain 2: MRGKTFRFEMQRDLVSFPLSPAVRVKLVSAGFQTAEELLEVKPSELSKEVGISKAEALETLQIIRRECLTNKPRYAGTSESHKKCTALELLEQEHTQGFIITFCSALDDILGGGVPLMKTTEICGAPGVGKTQLCMQLAVDVQIPECFGGVAGEAVFIDTEGSFMVDRVVDLATACIQHLQLIAEKHKGEEHRKALEDFTLDNILSHIYYFRCRDYTELLAQVYLLPDFLSEHSKVRLVIVDGIAFPFRHDLDDLSLRTRLLNGLAQQMISLANNHRLAVILTNQMTTKIDRNQALLVPALGESWGHAATIRLIFHWDRKQRLATLYKSPSQKECTVLFQIKPQGFRDTVVTSACSLQTEGSLSTRKRSRDPEEEL
chain 3: MGVLRVGLCPGLTEEMIQLLRSHRIKTVVDLVSADLEEVAQKCGLSYKALVALRRVLLAQFSAFPVNGADLYEELKTSTAILSTGIGSLDKLLDAGLYTGEVTEIVGGPGSGKTQVCLCMAANVAHGLQQNVLYVDSNGGLTASRLLQLLQAKTQDEEEQAEALRRIQVVHAFDIFQMLDVLQELRGTVAQQVTGSSGTVKVVVVDSVTAVVSPLLGGQQREGLALMMQLARELKTLARDLGMAVVVTNHITRDRDSGRLKPALGRSWSFVPSTRILLDTIEGAGASGGRRMACLAKSSRQPTGFQEMVDIGTWGTSEQSATLQGDQT
chain 4: MCSAFHRAESGTELLARLEGRSSLKEIEPNLFADEDSPVHGDILEFHGPEGTGKTEMLYHLTARCILPKSEGGLEVEVLFIDTDYHFDMLRLVTILEHRLSQSSEEIIKYCLGRFFLVYCSSSTHLLLTLYSLESMFCSHPSLCLLILDSLSAFYWIDRVNGGESVNLQESTLRKCSQCLEKLVNDYRLVLFATTQTIMQKASSSSEEPSHASRRLCDVDIDYRPYLCKAWQQLVKHRMFFSKQDDSQSSNQFSLVSRCLKSNSLKKHFFIIGESGVEFC
Kd (RAD51 [9]): 57 nM

B2: RAD51C-XRCC3 heterodimer (complex)
chain 1: B1 chain 2
chain 2: B1 chain 1
Kd (RAD51 [10]): 93 nM
